According to article PMC11054433, “Nature-Inspired 1-Phenylpyrrolo[2,1-a]isoquinoline Scaffold for Novel Antiproliferative Agents Circumventing P-Glycoprotein-Dependent Multidrug Resistance” (Pharmaceuticals, 2024):
pIC50, pKd: −log10 of the molar value. “And” between values parts separate entries of the source, which are not always exact repeats. Equal entries are not always repeated. Where two headings read alike, the source gives them in different places.

Key:
[1] = system: RD (rhabdomyosarcoma) cells; conditions: mean (SD), cited from earlier work
[2] = system: HCT116 (colon cancer) cells; conditions: mean (SD), cited from earlier work
[3] = biological target: multidrug-resistance-associated protein-1 (MRP1) (Homo sapiens, UniProt P33527); experiment: Calcein-AM transport inhibition in MDCK-MRP1 cells overexpressing MRP1
Chain of multidrug-resistance-associated protein-1 (MRP1) (P33527 whole entry): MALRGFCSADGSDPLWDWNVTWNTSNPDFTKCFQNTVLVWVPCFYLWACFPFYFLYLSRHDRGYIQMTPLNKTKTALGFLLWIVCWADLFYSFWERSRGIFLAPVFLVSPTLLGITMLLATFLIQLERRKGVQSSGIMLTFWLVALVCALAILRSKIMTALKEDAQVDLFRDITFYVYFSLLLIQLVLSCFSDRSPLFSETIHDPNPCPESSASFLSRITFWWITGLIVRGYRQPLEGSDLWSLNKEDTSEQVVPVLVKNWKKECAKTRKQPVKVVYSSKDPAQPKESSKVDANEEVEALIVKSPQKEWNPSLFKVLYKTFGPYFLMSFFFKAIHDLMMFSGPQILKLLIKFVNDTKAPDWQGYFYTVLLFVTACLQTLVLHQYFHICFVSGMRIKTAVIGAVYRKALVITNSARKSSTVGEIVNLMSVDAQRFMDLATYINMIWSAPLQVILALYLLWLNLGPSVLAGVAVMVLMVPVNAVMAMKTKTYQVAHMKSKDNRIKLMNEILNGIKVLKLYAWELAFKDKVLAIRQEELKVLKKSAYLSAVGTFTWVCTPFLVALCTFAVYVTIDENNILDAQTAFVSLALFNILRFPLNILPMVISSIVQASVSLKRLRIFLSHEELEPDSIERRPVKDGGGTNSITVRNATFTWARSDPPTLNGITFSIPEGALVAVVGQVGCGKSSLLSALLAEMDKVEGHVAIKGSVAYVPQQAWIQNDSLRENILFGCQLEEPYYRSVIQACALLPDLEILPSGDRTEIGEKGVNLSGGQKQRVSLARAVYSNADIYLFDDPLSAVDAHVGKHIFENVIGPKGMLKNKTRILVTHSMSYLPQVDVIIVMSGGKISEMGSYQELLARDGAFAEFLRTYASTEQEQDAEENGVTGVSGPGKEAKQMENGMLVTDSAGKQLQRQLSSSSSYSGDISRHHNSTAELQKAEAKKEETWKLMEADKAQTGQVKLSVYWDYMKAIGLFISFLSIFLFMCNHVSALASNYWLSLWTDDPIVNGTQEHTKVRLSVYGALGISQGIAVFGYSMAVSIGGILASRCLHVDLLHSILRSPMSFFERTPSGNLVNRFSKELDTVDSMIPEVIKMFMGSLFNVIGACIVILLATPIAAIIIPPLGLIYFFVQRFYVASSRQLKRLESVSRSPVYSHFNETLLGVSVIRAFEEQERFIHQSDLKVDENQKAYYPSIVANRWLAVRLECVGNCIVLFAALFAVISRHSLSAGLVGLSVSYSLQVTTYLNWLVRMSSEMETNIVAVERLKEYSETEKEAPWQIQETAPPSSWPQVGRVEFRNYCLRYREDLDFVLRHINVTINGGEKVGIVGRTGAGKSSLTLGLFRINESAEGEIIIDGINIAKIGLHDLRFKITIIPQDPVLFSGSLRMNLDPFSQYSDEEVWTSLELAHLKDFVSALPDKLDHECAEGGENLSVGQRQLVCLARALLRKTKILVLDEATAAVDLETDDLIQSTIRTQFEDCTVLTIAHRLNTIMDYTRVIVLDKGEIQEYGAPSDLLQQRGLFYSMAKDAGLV
Protocol: (§3) The P-gp inhibitory potency of eight DHPIQs was evaluated by measuring the transport inhibition of calcein-AM, a profluorescent P-gp substrate, in the MDCK-MDR1 cell line overexpressing P-gp. Moreover, to evaluate the MRP1 inhibitor activity, the same compounds were screened in MDCK-MRP1 cells overexpressing MRP1.
(§4) According to previously described assays [9], MDCK-MDR1 and MDCK-MRP1 cell lines (50,000 cells per well) were seeded into a black CulturePlate 96-well plate with 100 μL medium and allowed to become confluent overnight. […] Saline buffer (100 μL) was added to each well, and the plate was read by a PerkinElmer Victor3 spectrofluorimeter at excitation and emission wavelengths of 485 nm and 535 nm, respectively. In these experimental conditions, calcein cell accumulation in the absence and in the presence of the test compound was evaluated, and the fluorescence basal level was estimated by untreated cells. In the treated wells, the increase of fluorescence with respect to basal level was measured. IC50 values were determined by interpolating the curve of fluorescence increase percentage versus log [conc.].

[4] = system: HeLa (adenocarcinoma of the cervix uterus) cells; conditions: mean (SD), cited from earlier work
[5] = biological target: T1, P-glycoprotein (P-gp) (Homo sapiens, UniProt P08183); experiment: Calcein-AM transport inhibition in MDCK-MDR1 cells overexpressing P-gp; conditions: for pIC50: P-gp, IC50, MDCK-MDR1 cells, calcein-AM, mean (SD), at least two independent experiments in triplicate
T1 sequence (P08183 whole entry): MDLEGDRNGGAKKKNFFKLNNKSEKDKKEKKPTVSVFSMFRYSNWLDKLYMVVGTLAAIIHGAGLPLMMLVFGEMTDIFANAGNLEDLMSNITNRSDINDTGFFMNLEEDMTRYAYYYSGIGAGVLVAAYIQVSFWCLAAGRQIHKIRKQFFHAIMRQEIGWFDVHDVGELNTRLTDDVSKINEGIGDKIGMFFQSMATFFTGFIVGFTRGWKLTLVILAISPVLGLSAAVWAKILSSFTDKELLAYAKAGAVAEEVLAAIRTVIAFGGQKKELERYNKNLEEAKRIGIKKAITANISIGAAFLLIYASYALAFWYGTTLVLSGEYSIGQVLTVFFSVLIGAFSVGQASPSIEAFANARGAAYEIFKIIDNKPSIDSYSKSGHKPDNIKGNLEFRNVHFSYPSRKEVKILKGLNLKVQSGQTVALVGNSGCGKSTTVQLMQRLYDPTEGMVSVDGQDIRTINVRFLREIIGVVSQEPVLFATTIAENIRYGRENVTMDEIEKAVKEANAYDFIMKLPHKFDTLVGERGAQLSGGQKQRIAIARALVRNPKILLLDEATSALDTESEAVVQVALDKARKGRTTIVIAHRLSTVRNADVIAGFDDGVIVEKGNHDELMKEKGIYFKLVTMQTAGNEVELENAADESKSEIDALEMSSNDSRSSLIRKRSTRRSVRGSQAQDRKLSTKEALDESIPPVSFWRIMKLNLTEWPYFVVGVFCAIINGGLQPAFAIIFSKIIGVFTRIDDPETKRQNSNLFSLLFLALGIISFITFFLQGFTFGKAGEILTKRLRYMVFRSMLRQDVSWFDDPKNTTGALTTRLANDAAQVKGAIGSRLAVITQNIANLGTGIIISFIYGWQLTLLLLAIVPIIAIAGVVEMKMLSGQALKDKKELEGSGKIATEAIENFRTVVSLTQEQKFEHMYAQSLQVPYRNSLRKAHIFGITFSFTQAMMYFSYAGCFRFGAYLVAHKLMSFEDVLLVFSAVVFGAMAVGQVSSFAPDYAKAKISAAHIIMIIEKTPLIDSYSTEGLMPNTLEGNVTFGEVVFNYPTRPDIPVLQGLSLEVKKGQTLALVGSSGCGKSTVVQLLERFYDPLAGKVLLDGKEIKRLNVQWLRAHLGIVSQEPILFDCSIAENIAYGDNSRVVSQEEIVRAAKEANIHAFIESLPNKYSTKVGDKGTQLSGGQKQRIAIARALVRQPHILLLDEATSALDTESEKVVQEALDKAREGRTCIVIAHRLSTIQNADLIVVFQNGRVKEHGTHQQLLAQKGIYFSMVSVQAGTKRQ
Protocol: as §3, §4

[6] = biological target: T2, human serum albumin (HSA) (Homo sapiens, UniProt P02768); experiment: Binding affinity to immobilized HSA by surface plasmon resonance (SPR)
T2 sequence (P02768 25-609): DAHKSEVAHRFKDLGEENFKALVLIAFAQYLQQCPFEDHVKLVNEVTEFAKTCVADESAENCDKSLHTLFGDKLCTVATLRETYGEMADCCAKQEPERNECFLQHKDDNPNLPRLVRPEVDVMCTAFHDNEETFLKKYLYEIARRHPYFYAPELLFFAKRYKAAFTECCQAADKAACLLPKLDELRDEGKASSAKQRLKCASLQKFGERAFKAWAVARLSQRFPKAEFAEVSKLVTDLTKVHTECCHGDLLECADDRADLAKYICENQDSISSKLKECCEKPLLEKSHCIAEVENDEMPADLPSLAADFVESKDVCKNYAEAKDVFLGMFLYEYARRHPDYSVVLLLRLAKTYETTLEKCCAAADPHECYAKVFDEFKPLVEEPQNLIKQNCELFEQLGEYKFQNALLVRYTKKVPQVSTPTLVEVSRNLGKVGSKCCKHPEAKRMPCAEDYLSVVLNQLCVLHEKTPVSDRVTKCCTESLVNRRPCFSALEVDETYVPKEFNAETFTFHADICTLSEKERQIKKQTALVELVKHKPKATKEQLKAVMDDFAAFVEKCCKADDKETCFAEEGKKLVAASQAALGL
Protocol: (§5) By plotting the response at equilibrium, the dissociation constant (KD) value was determined for each test compound.
(§6) Fatty acid-free HSA (A3782 from Merck, KGaA Sigma-Aldrich, Darmstadt, Germany) was applied to functionalize the surface of a COOH V sensor chip (Pall FortèBio, Fremont Boulevard, CA, USA), by using amine coupling (EDC/NHS). HSA aqueous stock solution was diluted at the final concentration of 50 μg·mL^−1 in 10 mM sodium acetate buffer (pH 5.0), and immobilization in peripheral flow cells 1 and 3 (unmodified dextran surface in middle flow cell 2 used as a reference) at a final apparent level of about 5000 RU was achieved by applying the following protocol: injection of EDC/NHS (freshly mixed 0.4 M EDC and 0.1 M NHS) 1:1 v/v at a flow of 25 μL·min^−1 for 4 min; injection of HSA solution at a flow of 25 μL·min^−1 for 8 min; capping on unreacted activated carboxyl groups by injection of 1 M ethanolamine solution (pH 9) at a flow of 25 μL·min^−1 for 8 min. The functionalized surface was then treated with repeated injection of 4 M NaCl, as a regenerating reagent, and conditioned overnight prior to use with pH 7.4 PBS (10 mM NaH2PO4 and 150 mM NaCl) as a running buffer. Each cycle (without the need of regeneration) for binding assay to HSA was carried out in PBS/4% v/v DMSO and consisted of a run buffer injection (60 s), injection of analyte single concentration for 120 s (ranging from 1 to 200 μM) at a flow 20 μL·min^−1, and a dissociation phase for 150 s (flow 20 μL·min^−1). Each measurement was performed at least in triplicate and analyzed by using QDAT software, vers 2.2.0.7 (non-linear regression analysis of 1:1 stoichiometric reversible binding model), and double referencing.

[7] = Kinetic solubility in PBS by RP-HPLC; format: physicochemical; conditions: phosphate buffered saline, 25 °C, kinetic from dmso stock
Protocol: Sample solution at 200 μM in PBS (50 mM, pH 7.4, KCl 0.15 M) from a 10 mM stock solution in DMSO was incubated at room temperature (25 ± 1 °C) for 2 h, following shaking of the suspension on an orbital shaker at 250 rpm, and then separated by […]. Immediately after the filtration step, 100 µL of filtrate was transferred into 100 µL of 1:1 (v/v) mixture of DMSO and PBS (50 mM, pH 7.4, KCl 0.15 M), to avoid precipitation from the saturated solution and analyzed by HPLC. The peak area was plotted against a calibration curve of the tested compound in MeOH [21]. Analytical conditions were as follows. Mobile Phase: MeOH/ammonium formate 20 mM pH 4.7 (70:30, 75:25); MeOH 0.1% TFA/H2O 0.1% TFA (70:30, 60:40); stationary phase: Phenomenex, Kinetex 5 μ, C18, 100 Å (150 × 4.6 mm); flux: 1 mL/min; injection: 10 μL, 265, 290, 320 nm wavelength. HPLC analyses were performed on an Agilent HPLC 1260 Infinity Series Integrated System (Agilent Technologies, Milan, Italy).

[8] = system: A549 (lung adenocarcinoma) cells; conditions: mean (SD), cited from earlier work
[9] = Lipophilicity by RP-HPLC (polycratic capacity factor); format: physicochemical; conditions: capacity factor extrapolated to 100% aqueous mobile phase, aqueous component pH 4.7
Protocol: To quantitate the effect of hydrophobicity on the biological activity of the examined compounds, a relative lipophilicity scale was determined by RP-HPLC [20]. The polycratic capacity factor (log k′w) for each compound in Table 2 was experimentally determined (details in the experimental section) and compared with 1-octanol–water partition coefficient calculated (Clog P) with ACDLabs software (release 10.0; Advanced Chemistry Development, Inc., Toronto, ON, Canada). Log k′w values are quite well correlated with Clog Ps for the whole series (r^2 = 0.791). However, omitting from the regression the two Mannich bases 8b and 8c, which, due to their basicity (pKas about 6.9, estimated by ACDLabs software), should be predominantly in the protonated forms at pH 4.7 (i.e., the pH of the aqueous component of the mobile phase in RP-HPLC), the correlation slightly improves (r^2 = 0.859), providing a linear equation with a slope equal to +0.8 and an intercept of about −0.1.
The lipophilicity parameters were determined by an RP-HPLC technique. Methanol solution of DHPIQ derivatives (1 mg/mL) were analyzed by an Agilent 1260 infinite HPLC system (Agilent Technologies, Milan, Italy) equipped with a diode array detector (DAD), and a Phenomenex, Kinetex 5 μ, C18, 100 Å (150 × 4.6 mm), and eluted with different percentage of mobile phase composition (0.05 increments of MeOH volume fractions in 20 mM ammonium formate buffer at pH 4.7 or water 0.1% v/v TFA, with φ ranging between 0.85 and 0.30). The chromatographic measurements were carried out at 25 ± 1 °C at a flow rate of 1 mL·min^−1 and at 265, 290, 320 nm wavelengths. The log of capacity factors (log k′ = log (tR − t0)/t0) of each compound at different mobile phase compositions was calculated; tR represents the retention time of the solute and t0 is the column dead time, measured as the elution time of a KNO3 solution in MeOH. For each compound, the log k′ values increased linearly with decreasing MeOH volume fraction. The logarithms of the capacity factor extrapolated to 100% aqueous mobile phase (log k′w) were calculated from the linear regressions on at least five data points (r^2 > 0.9984).

[10] = biological target: T1, P-glycoprotein (P-gp); set-up: expressed in transfected cells; host or cells: MDCK-MDR1 (gift from Prof. P. Borst, NKI-AVL); method as in PMID 29802687; conditions: MDCK-MDR1 cells; ref [9]; cited from earlier work
[11] = system: A549 (lung adenocarcinoma) cells; experiment: MTT antiproliferative (cytotoxicity) assay, A549 cells; format: cell-based, Human; conditions: mean (SD), triplicate, n.a. = not active at 100 μM, >100 = less than 60% inhibition at 100 μM
Protocol: The antiproliferative activity of the newly synthesized compounds, along with some previously reported analogs, and camptothecin and doxorubicin as positive controls was determined by the MTT (3-(4,5-dimethylthiazol-2-yl)-2,5-diphenyltetrazolium bromide) assay. […] Each concentration of the test compound was assayed in triplicate. […] Wells with the 0.1% v/v DMSO were used as controls. After incubation, 20 μL of MTT (5 mg·mL^−1) was added to each well and the plates were incubated for a further 2 h. Next, media were removed from the plates, and 100 μL of DMSO was added to each well to dissolve the formed formazan crystals. Using a flatbed analyzer (Victor^3, PerkinElmer, Waltham, MA, USA), the optical density was determined at 530 nm, minus the measured background absorbance at 620 nm.

[12] = Hydrolytic stability monitored by RP-HPLC; format: physicochemical; conditions: 0.15 M KCl; for Hydrolytic stability at pH 2: 0.01 M HClaq, pH 2, 25 °C; for Hydrolytic stability at pH 7.4: 50 mM PBS, pH 7.4, 25 °C
Source text: In particular, the transformation of the DHPIQ-2-aldehyde via Mannich reaction (8b,c) opens the road to future developments of new water-soluble antiproliferative DHPIQ derivatives endowed with the ability to inhibit P-gp and reverse MDR.

[13] = system: RD (rhabdomyosarcoma) cells; experiment: MTT antiproliferative (cytotoxicity) assay, RD cells; format: cell-based, Human; conditions: 72 h, mean (SD), triplicate, n.a. = not active at 100 μM, >100 = less than 60% inhibition at 100 μM
Protocol: (§1) The newly synthesized 1-Ph-DHPIQs, along with the previously reported derivatives 4a, 4c, 6a and 6c, with camptothecin and doxorubicin as positive controls, were tested at the maximum concentration of 100 μM for their antiproliferative activity, using an MTT assay on RD, HCT116, HeLa and A549 cancer cell lines. Compounds showing more than 50% inhibition were tested at lower scalar concentrations, and IC50 values were calculated by interpolation of the dose-response curves (Table 1). […]
(§2) The antiproliferative activity of the newly synthesized compounds, along with some previously reported analogs, and camptothecin and doxorubicin as positive controls was determined by the MTT (3-(4,5-dimethylthiazol-2-yl)-2,5-diphenyltetrazolium bromide) assay. The cells were seeded at a concentration of 1 × 10 ^4 cells/200 μL in a 96-well plate and cultured at 37 °C in a humidified atmosphere with 5% CO2. After 24 h of incubation, scalar concentrations of each test compound (100 to 1.56 μmol·L^−1) were added to the cancer cell culture and the cells were then cultured under the same conditions for 72 hr. Each concentration of the test compound was assayed in triplicate. […] Wells with the 0.1% v/v DMSO were used as controls. After incubation, 20 μL of MTT (5 mg·mL^−1) was added to each well and the plates were incubated for a further 2 h. Next, media were removed from the plates, and 100 μL of DMSO was added to each well to dissolve the formed formazan crystals. Using a flatbed analyzer (Victor^3, PerkinElmer, Waltham, MA, USA), the optical density was determined at 530 nm, minus the measured background absorbance at 620 nm. The concentration value, which causes 50% inhibition of cell population growth (IC50), was determined from the dose-dependent curves using the OriginPro 9.0 software.

[14] = system: HeLa (adenocarcinoma of the cervix uterus) cells; experiment: MTT antiproliferative (cytotoxicity) assay, HeLa cells; format: cell-based, Human; conditions: 72 h, mean (SD), triplicate, n.a. = not active at 100 μM, >100 = less than 60% inhibition at 100 μM
Protocol: as §1, §2

[15] = biological target: T2, human serum albumin (HSA); conditions: 10 μM, pH 7.4
Protocol: as §5, §6

[16] = system: HCT116 (colon cancer) cells; experiment: MTT antiproliferative (cytotoxicity) assay, HCT116 cells; format: cell-based, Human; conditions: mean (SD), triplicate, n.a. = not active at 100 μM, >100 = less than 60% inhibition at 100 μM
Protocol: as §1, §2

[17] = biological target: P-gp versus MRP1 (Homo sapiens, UniProt P08183); experiment: Calcein-AM transport inhibition in MDCK-MDR1 cells overexpressing P-gp; conditions: human, MDCK-MDR1 cells and MDCK-MRP1 cells, probe calcein-AM
Chain of P-gp versus MRP1 (P08183 whole entry): as the sequence (P08183 whole entry) above
Protocol: as §3, §4

[18] = aqueous buffer, PBS (50 mM, pH 7.4, 0.15 M KCl) at 25 ± 1 °C, read-out: S (solubility)
[19] = Homo sapiens, Rhabdomyosarcoma cell
[20] = pH 7.4, aqueous buffer, ‘practically insoluble’ threshold of US and European Pharmacopoeia, read-out: Solubility category in buffered water solution at neutral pH

SMILES | pIC50 [3] | pIC50 [5] | pKd [6] | solubility at 2 h [7, 18] | Log k′w [9] | pIC50 ([11]; Homo sapiens, A549, 72 h) | Hydrolytic stability at pH 2 [12] | Hydrolytic stability at pH 7.4 [12] | pIC50 [13, 19] | pIC50 ([14]; Homo sapiens, HeLa) | solubility at 2 h [7, 20] | Predicted fraction bound to HSA [15] | pIC50 ([16]; Homo sapiens, HCT-116, 72 h) | further results
COc1cc2c(cc1OC)-c1c(-c3ccc(Cl)cc3)c(C=O)cn1CC2 [Compound 4a] | 4.66 | 4.60 | 5.80 | 6.66 µM | 4.32 |  |  |  |  |  |  |  |  | pIC50 ([1]; ref [5]): 4.75; pIC50 ([2]; ref [5]): 4.66; pIC50 ([4]; ref [5]): 4.48; P-gp/MRP1 selectivity (toward P-gp) ([5]; ratio of MRP1 and P-gp inhibition potency): unselective; pIC50 ([8]; ref [5]): 4.41
CCOc1ccc(-c2c(C=O)cn3c2-c2cc(OCC)c(OCC)cc2CC3)cc1OCC [Compound 4c] |  |  |  |  |  |  |  |  |  |  |  |  |  | pIC50 ([1]; ref [8]): 4.67; pIC50 ([2]; ref [8]): 4.93; pIC50 ([4]; ref [8]): 4.35; pIC50 ([8]; ref [8]): 4.71; pIC50 [10]: > 6.30
COc1ccc(-c2c(CN3CCOCC3)cn3c2-c2cc(OC)c(OC)cc2CC3)cc1 [Compound 8b, 8,9-Dimethoxy-1-(4-methoxyphenyl)-2-(morpholin-4-ylmethyl)-5,6-dihydropyrrolo[2,1-a]isoquinoline] | 5.74 | > 6.30 and 6.44 | 4.71 | 112 µM | 3.86 | 4.18 | stable over 4 h | stable over 4 h | 4.42 | 4.18 | < 100 µg/mL | less than 40% | 4.25 | 
CCOc1ccc(-c2c(CN3CCOCC3)cn3c2-c2cc(OCC)c(OCC)cc2CC3)cc1OCC [Compound 8c, 1-(3,4-Diethoxyphenyl)-8,9-diethoxy-2-(morpholin-4-ylmethyl)-5,6-dihydropyrrolo[2,1-a]isoquinoline] | 4.92 | > 6.30 and 6.35 | 4.57 | 41.7 µM | 4.31 | > 4.68 | stable | stable | > 4.68 | > 4.68 | < 100 µg/mL | less than 40% | > 4.68 | pIC50 ([11]; 72 h): 4.68; pIC50 [13]: > 4.70 and 4.73; selectivity ratio [17]: ~30; pIC50 [14]: 4.76; pIC50 ([16]; 72 h): 4.80
